Measurements reported in PubChem BioAssay AID1963869 (Molecular Pharmacology Branch, DTP, NCI, 2024).

Test system: KRAS patient-derived spheroids with HUVEC/MSC, viability
Assay: Anticancer human tumor 323965-272-R-J2-PDC patient-derived pancreatic carcinoma cell line growth inhibition [KRAS2]
Conditions: for IC50: curve of first compound; for viability, T/C: stronger effect = lower value
In short: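 KRAS-mutant tumor cells were grown as spheroids with HUVEC endothelial cells and human MSCs as stroma. Targeted agents were tested alone and with KRAS pathway inhibitors. Doses started at or near clinical Cmax, or 10 microM, descending half-log.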

[1] = second compound 0.1 µM, first compound 0.01 µM
[2] = second compound 0.1 µM, first compound 0.0316 µM
[3] = second compound 0.1 µM, first compound 0.1 µM
[4] = second compound 0.1 µM, first compound 0.316 µM
[5] = second compound 0.1 µM, first compound 1 µM
[6] = second compound 0.1 µM, first compound 3.16 µM
[7] = second compound 0.316 µM, first compound 0.01 µM
[8] = second compound 0.316 µM, first compound 0.0316 µM
[9] = second compound 0.316 µM, first compound 0.1 µM
[10] = second compound 0.316 µM, first compound 0.316 µM
[11] = second compound 0.316 µM, first compound 1 µM
[12] = second compound 0.316 µM, first compound 3.16 µM
[13] = second compound 1 µM, first compound 0.01 µM
[14] = second compound 1 µM, first compound 0.0316 µM
[15] = second compound 1 µM, first compound 0.1 µM
[16] = second compound 1 µM, first compound 0.316 µM
[17] = second compound 1 µM, first compound 1 µM
[18] = second compound 1 µM, first compound 3.16 µM
[19] = second compound 3.16 µM, first compound 0.01 µM
[20] = second compound 3.16 µM, first compound 0.0316 µM
[21] = second compound 3.16 µM, first compound 0.1 µM
[22] = second compound 3.16 µM, first compound 0.316 µM
[23] = second compound 3.16 µM, first compound 1 µM
[24] = second compound 3.16 µM, first compound 3.16 µM
[25] = second compound 10 µM, first compound 0.01 µM
[26] = second compound 10 µM, first compound 0.0316 µM
[27] = second compound 10 µM, first compound 0.1 µM
[28] = second compound 10 µM, first compound 0.316 µM
[29] = second compound 10 µM, first compound 1 µM
[30] = second compound 10 µM, first compound 3.16 µM
[31] = second compound 0.1 µM, first compound 10 µM
[32] = second compound 0.316 µM, first compound 10 µM
[33] = second compound 1 µM, first compound 10 µM
[34] = second compound 3.16 µM, first compound 10 µM
[35] = second compound 10 µM, first compound 10 µM
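Further: spheroids exposed to agents for 7 days.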
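Wherever viability, T/C is given: 100% = DMSO vehicle control viability.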

CC(=O)OC12COC1CC(O)C1(C)C(=O)C(O)C3=C(C)C(OC(=O)C(O)C(NC(=O)OC(C)(C)C)c4ccccc4)CC(O)(C(OC(=O)c4ccccc4)C21)C3(C)C (stereo not given) + CNCc1ccccc1-c1csc(C(C)Nc2nc(C)nc3cc(OC)c(OC)cc23)c1
IC50 (second compound 0.1 µM): < 10 nM | IC50 (second compound 0.316 µM): < 10 nM | IC50 (second compound 1 µM): < 10 nM | IC50 (second compound 3.16 µM): < 10 nM | IC50 (second compound 10 µM): < 10 nM | viability, T/C [1]: 29% | viability, T/C [2]: 25.5% | viability, T/C [3]: 24.1% | viability, T/C [4]: 25.7% | viability, T/C [5]: 26.5% | viability, T/C [6]: 28.6% | viability, T/C [7]: 23.3% | viability, T/C [8]: 24.3% | viability, T/C [9]: 21.9% | viability, T/C [10]: 21.8% | viability, T/C [11]: 23% | viability, T/C [12]: 25.7% | viability, T/C [13]: 27.5% | viability, T/C [14]: 25.7% | viability, T/C [15]: 28.4% | viability, T/C [16]: 28.2% | viability, T/C [17]: 32.7% | viability, T/C [18]: 35.3% | viability, T/C [19]: 0.95% | viability, T/C [20]: 26.9% | viability, T/C [21]: 4.54% | viability, T/C [22]: 0.8% | viability, T/C [23]: 7.93% | viability, T/C [24]: 30.4% | viability, T/C [25]: 0.72% | viability, T/C [26]: 0.14% | viability, T/C [27]: 0.36% | viability, T/C [28]: 0.45% | viability, T/C [29]: 0.41% | viability, T/C [30]: 0.21%

CN(C)C/C=C/C(=O)Nc1cc2c(Nc3ccc(F)c(Cl)c3)ncnc2cc1O[C@H]1CCOC1 + CNCc1ccccc1-c1csc(C(C)Nc2nc(C)nc3cc(OC)c(OC)cc23)c1
IC50 (second compound 0.1 µM): > 100 nM | IC50 (second compound 0.316 µM): > 100 nM | IC50 (second compound 1 µM): > 100 nM | IC50 (second compound 3.16 µM): > 100 nM | IC50 (second compound 10 µM): < 0.316 nM | viability, T/C (second compound 0.1 µM, first compound 0.000316 µM): 91.6% | viability, T/C (second compound 0.1 µM, first compound 0.001 µM): 80.5% | viability, T/C (second compound 0.1 µM, first compound 0.00316 µM): 94.3% | viability, T/C [1]: 70.6% | viability, T/C [2]: 59.6% | viability, T/C [3]: 62.7% | viability, T/C (second compound 0.316 µM, first compound 0.000316 µM): 83.8% | viability, T/C (second compound 0.316 µM, first compound 0.001 µM): 82.1% | viability, T/C (second compound 0.316 µM, first compound 0.00316 µM): 74.3% | viability, T/C [7]: 64.2% | viability, T/C [8]: 59.2% | viability, T/C [9]: 57.8% | viability, T/C (second compound 1 µM, first compound 0.000316 µM): 82.3% | viability, T/C (second compound 1 µM, first compound 0.001 µM): 81.4% | viability, T/C (second compound 1 µM, first compound 0.00316 µM): 75.2% | viability, T/C [13]: 60.6% | viability, T/C [14]: 63.3% | viability, T/C [15]: 65.1% | viability, T/C (second compound 3.16 µM, first compound 0.000316 µM): 73.8% | viability, T/C (second compound 3.16 µM, first compound 0.001 µM): 63.7% | viability, T/C (second compound 3.16 µM, first compound 0.00316 µM): 79.1% | viability, T/C [19]: 79.6% | viability, T/C [20]: 47.2% | viability, T/C [21]: 71.9% | viability, T/C (second compound 10 µM, first compound 0.000316 µM): 0.21% | viability, T/C (second compound 10 µM, first compound 0.001 µM): 0.21% | viability, T/C (second compound 10 µM, first compound 0.00316 µM): 1.04% | viability, T/C [25]: 0.21% | viability, T/C [26]: 0.2% | viability, T/C [27]: 0.78%

COC(=O)c1ccc2c(C(=Nc3ccc(N(C)C(=O)CN4CCN(C)CC4)cc3)c3ccccc3)c(O)[nH]c2c1 + CNCc1ccccc1-c1csc(C(C)Nc2nc(C)nc3cc(OC)c(OC)cc23)c1
IC50 (second compound 0.1 µM): > 10000 nM | IC50 (second compound 0.316 µM): > 10000 nM | IC50 (second compound 1 µM): > 10000 nM | IC50 (second compound 3.16 µM): > 10000 nM | IC50 (second compound 10 µM): < 31.6 nM | viability, T/C [2]: 94.9% | viability, T/C [3]: 90% | viability, T/C [4]: 102% | viability, T/C [5]: 94.2% | viability, T/C [6]: 95.7% | viability, T/C [31]: 89.2% | viability, T/C [8]: 90.6% | viability, T/C [9]: 88.4% | viability, T/C [10]: 97% | viability, T/C [11]: 98.2% | viability, T/C [12]: 94.3% | viability, T/C [32]: 86.5% | viability, T/C [14]: 90.3% | viability, T/C [15]: 90.8% | viability, T/C [16]: 85.7% | viability, T/C [17]: 79.6% | viability, T/C [18]: 93.7% | viability, T/C [33]: 90.4% | viability, T/C [20]: 102% | viability, T/C [21]: 105% | viability, T/C [22]: 99.6% | viability, T/C [23]: 103% | viability, T/C [24]: 90% | viability, T/C [34]: 88.6% | viability, T/C [26]: 0.33% | viability, T/C [27]: 1.26% | viability, T/C [28]: 0.33% | viability, T/C [29]: 0.3% | viability, T/C [30]: 0.44% | viability, T/C [35]: 0.35%

O=C(c1cc(Cc2n[nH]c(=O)c3ccccc23)ccc1F)N1CCN(C(=O)C2CC2)CC1 + CNCc1ccccc1-c1csc(C(C)Nc2nc(C)nc3cc(OC)c(OC)cc23)c1
IC50 (second compound 0.1 µM): > 10000 nM | IC50 (second compound 0.316 µM): > 10000 nM | IC50 (second compound 1 µM): > 10000 nM | IC50 (second compound 3.16 µM): 8840 nM | IC50 (second compound 10 µM): < 31.6 nM | viability, T/C [2]: 98.7% | viability, T/C [3]: 93.1% | viability, T/C [4]: 97.8% | viability, T/C [5]: 93.6% | viability, T/C [6]: 89% | viability, T/C [31]: 57.1% | viability, T/C [8]: 94.9% | viability, T/C [9]: 91% | viability, T/C [10]: 98.4% | viability, T/C [11]: 89.7% | viability, T/C [12]: 86.2% | viability, T/C [32]: 51.5% | viability, T/C [14]: 92% | viability, T/C [15]: 93.5% | viability, T/C [16]: 84.5% | viability, T/C [17]: 86.3% | viability, T/C [18]: 83.3% | viability, T/C [33]: 52.9% | viability, T/C [20]: 102% | viability, T/C [21]: 102% | viability, T/C [22]: 96.4% | viability, T/C [23]: 98.8% | viability, T/C [24]: 92.5% | viability, T/C [34]: 44.8% | viability, T/C [26]: 6.59% | viability, T/C [27]: 0.4% | viability, T/C [28]: 2.23% | viability, T/C [29]: 0.39% | viability, T/C [30]: 0.34% | viability, T/C [35]: 0.82%
